Drawing on patent publication US12281121B2, “N-containing heteroaryl derivative and pharmaceutical composition comprising same as active ingredient for prevention or treatment of cancer” (VORONOI Inc., priority 2019, dated 2025), this text covers IC50 and GI50 for 13 compounds.

One assay addresses T1, RET (WT) (Homo sapiens, UniProt P07949).
T1 construct: human RET (658-end, SIGNALCHEM); purchased SIGNALCHEM
T1 sequence (P07949 658-1114 limits assumed): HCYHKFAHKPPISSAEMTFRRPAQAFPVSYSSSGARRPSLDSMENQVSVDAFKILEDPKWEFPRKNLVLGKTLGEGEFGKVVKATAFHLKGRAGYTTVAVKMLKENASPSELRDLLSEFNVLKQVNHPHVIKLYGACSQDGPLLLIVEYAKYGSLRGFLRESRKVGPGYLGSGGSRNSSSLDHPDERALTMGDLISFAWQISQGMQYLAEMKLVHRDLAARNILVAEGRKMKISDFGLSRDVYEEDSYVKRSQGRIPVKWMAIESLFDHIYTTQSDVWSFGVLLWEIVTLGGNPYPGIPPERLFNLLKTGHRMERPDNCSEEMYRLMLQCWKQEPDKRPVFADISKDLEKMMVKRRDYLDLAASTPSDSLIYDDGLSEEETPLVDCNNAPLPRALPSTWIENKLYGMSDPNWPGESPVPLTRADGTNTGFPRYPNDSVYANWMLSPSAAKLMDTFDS
Briefly: RET enzyme inhibitory ability, ADP-Glo kinase assay. In kind it is biochemical. The note with it: ATP 10 μM, 25° C., 1 hour. The procedure: The Example compound was reacted with a purified human RET (658-end, SIGNALCHEM) enzyme to evaluate the enzyme inhibitory ability by the following method. As a reaction buffer, a composition of 40 mM Tris-HCl pH 7.4, 20 mM MgCl2, 0.5 mg/mL BSA, and 50 μM DTT was used, and all experimental materials were reacted on the reaction buffer. After the human RET (658-end, 0.8 ng) enzyme was reacted with purified ATP (10 μM) and a specific substrate solution at 25° C. for 1 hour during the experiment, the enzyme activity was confirmed using in vitro ADP-Glo™ kinase assay (Promega). Luminescence was measured by reacting the enzyme activity reaction solution, the ADP-Glo reaction solution, and the enzyme activity detection solution at a ratio of 2:2:1. The degree of inhibition of enzyme activity according to the treatment concentration of each compound was calculated based on the […] of the enzyme activity of a solvent control group in which a compound was not treated, and in this case, the concentration of each compound which suppresses the […] enzyme activity by 50% was determined as an IC50 (nM) value. The IC50 (nM) of each compound was determined by 3 datasets and obtained using Prism (version 7.01, GraphPad) software.
In the enzyme assay column, RET (WT) is a non-mutated form, RET (V804M) is a mutated form in which the V amino acid at position 804 of the RET is substituted with M, and CCDC6-RET is a form in which the RET (WT) gene and CCDC6 gene are fused.
For orientation: ADP-Glo first removes unused ATP, then detects ADP through luciferase.

The test system of a further assay is Ba/F3 (naive) cells. The experiment in a line: Cell proliferation inhibition, CellTiter-Glo. In kind it is cell-based. The conditions noted are these: Mus musculus, BaF3; Ba/F3 not transduced, 72 hours. The procedure: (§1) Among lung cancer cell lines, which express RET fusion genes, LC-2/ad cells were cultured after adding 10% FBS (HyClone) to RPMI:F12 (1:1) (Invitrogen), and F-12 (Invitrogen) supplemented with 10% FBS was used for TT cells. RPMI-1640 supplemented with 10% FBS and 5 ng/ml IL-3 (R&D Systems) was used for Ba/F3 cells. Transduced Ba/F3 cells were cultured by adding 1 ug/ml puromycin (Invitrogen) to the same medium. 24 hours before cells were treated with the compound, 3000 to 5000 cells were aliquoted into each well of a white clear bottom 96 well plate (Corning). The compound was diluted in DMSO (3-fold dilution, a total of 12 concentrations) and the compound was injected by 0.5 μl such that the final concentration was 0.3 nM to 50 μM. For the measurement of living cells, 72 hours after the compound treatment, the cells were stored at room temperature for 10 minutes using a CellTiter-Glo luminescent cell-viability agent (Promega), and then the luminescence intensity was measured using a reader (SynergyNeo, Biotek). Each experiment was repeated in triplicate. The result value was calculated by the cell growth ratio (%) compared to the control. A graph was drawn using the GraphPad Prism version 5.0 program, and a GI50 (nM) value was calculated.
(§2) In the cell assay column, LC-2/ad (with CCDC6-RET gene) is a lung cancer cell line, a TT cell line ([…]) is a thyroid cancer cell line, Ba/F3 CCDC6-RET (WT), Ba/F3 KIF5B-RET (WT), and Ba/F3 KIF5B-RET (V804M) are cells in which disease-related traits (CCDC6-RET, KIF5B-RET, and KIF5B-RET (V804M)) are introduced into Ba/F3 cells, and Ba/F3 (naive) is a cell which is not transduced.

In assay [1] the test system is Ba/F3 CCDC6-RET (WT) cells. Briefly: Cell proliferation inhibition, CellTiter-Glo. In kind it is cell-based. The note with it: BaF3/CCDC6-RET, 72 hours. The procedure:
as §1, §2
Background: Cellular ATP, detected with luciferase, serves as a proxy for viable cell number.

The subject of assay [2] is Ba/F3 KIF5B-RET (V804M) cells. Briefly: Cell proliferation inhibition, CellTiter-Glo. The note with it: Mus musculus, BaF3, 72 hours. The assay is classed as cell-based. The procedure:
as §1, §2

The test system of assay [3] is Ba/F3 KIF5B-RET (WT) cells. Briefly: Cell proliferation inhibition, CellTiter-Glo. In kind it is cell-based. The conditions noted are these: Mus musculus, BaF3, 72 hours. The procedure: as §1, §2

`COc1ccc(CN2C[C@H]3C[C@@H]2CN3c2ccc(-c3nc(Nc4cc(C)[nH]n4)c4ccccc4n3)cn2)cn1` [Example 34, 2-(6-((1R,4R)-5-((6-methoxy-pyridin-3-yl)methyl)-2,5-diazabicyclo [2.2.1]heptan-2-yl)pyridin-3-yl)-N-(5-methyl-1H-pyrazol-3-yl)quinazolin-4-amine] had an IC50 on RET (WT) of 16 nM. Also, the GI50 is 2590 nM with Ba/F3 (naive) cells, 65 nM in assay [1], 20 nM in assay [2] and 19 nM in assay [3].
Taken in the same sequence, the figures for `COc1ccc(CN2CCN(c3ccc(-c4nc(Nc5cc(C)[nH]n5)c5ccccc5n4)cn3)CC23CC3)cn1` [Example 37, 2-(6-(4-((6-methoxypyridin-3-yl)methyl)-4,7-diazaspiro[2.5]oc-tan-7-yl)pyridin-3-yl)-N-(5-meth-yl-1H-pyrazol-3-yl)quinazolin-4-amine] were 219 nM, 4650 nM, 305 nM, 50 nM and 107 nM.
In the case of `COc1ccc(CN2C3CC2CN(c2ccc(-c4nc(Nc5cc(C)[nH]n5)c5ccccc5n4)cn2)C3)cc1C#N` [Example 12, 2-methoxy-5-((3-(5-(4-((5-methyl-1H-pyrazol-3-yl)amino)quina-zolin-2-yl)pyridin-2-yl)-3,6-diazabicyclo [3.1.1]heptan-6-yl)methyl)benzo-nitrile], the IC50 on RET (WT) amounted to 38 nM. Also, the GI50 with Ba/F3 (naive) cells is 2540 nM; in assay [1], 52 nM; in assay [2], 49 nM; in assay [3], 15 nM.
For `Cc1ncc(CN2C3CC2CN(c2ccc(-c4nc(Nc5cc(C)[nH]n5)c5ccccc5n4)cn2)C3)cn1` [Example 25, N-(5-methyl-1H-pyrazol-3-yl)-2-(6-(6-((2-methylpyrimidin-5-yl)methyl)-3,6-diazabicyclo [3.1.1]heptan-3-yl)pyridin-3-yl)quinazolin-4-amine], the midpoint of inhibition against RET (WT), the IC50, lay at 7 nM. Further, the GI50 with Ba/F3 (naive) cells turned out to be 1650 nM; in assay [1], 50 nM; in assay [2] it was 21 nM; in assay [3], 14 nM.
`CCOc1ccc(CN2C3CC2CN(c2ccc(-c4nc(Nc5cc(C)[nH]n5)c5ccccc5n4)cn2)C3)cn1` [Example 24, 2-(6-(6-((6-ethoxypyridin-3-yl)methyl)-3,6-diazabicyclo [3.1.1]heptan-3-yl)pyridin-3-yl)-N-(5-methyl-1H-pyrazol-3-yl)quinazolin-4-amine] displayed an IC50 against RET (WT) of 14 nM. Besides, the GI50 with Ba/F3 (naive) cells is 4320 nM; in assay [1], 53 nM; in assay [2], 10 nM; in assay [3], 12 nM.
`Cc1cc(Nc2nc(-c3ccc(N4CC5CC(C4)N5Cc4ccc(F)nc4)nc3)nc3ccccc23)n[nH]1` [Example 23, 2-(6-(6-((6-fluoropyridin-3-yl)methyl)-3,6-diazabicyclo [3.1.1]heptan-3-yl)pyridin-3-yl)-N-(5-methyl-1H-pyrazol-3-yl)quinazolin-4-amine] gave an IC50 against RET (WT) of 15 nM. Also, the GI50 was determined as 1300 nM in the assay with Ba/F3 (naive) cells, 57 nM in assay [1], 19 nM in assay [2] and 14 nM in assay [3].
`Cc1cc(Nc2nc(-c3ccc(N4CC5CC(C4)N5Cc4ccc(OC(C)C)nc4)nc3)nc3ccccc23)n[nH]1` [Example 15, 2-(6-(6-((6-iso-propoxypyridin-3-yl)methyl)-3,6-diazabicyclo [3.1.1]heptan-3-yl)pyridin-3-yl)-N-(5-methyl-1H-pyrazol-3-yl)quinazolin-4-amine] had an IC50 on RET (WT) of 40 nM. For the same compound, the GI50 with Ba/F3 (naive) cells came to 3100 nM; in assay [1], 75 nM; in assay [2] it was 30 nM; in assay [3] it was 24 nM.
At RET (WT), `Cc1csc(CN2C3CC2CN(c2ccc(-c4nc(Nc5cc(C)[nH]n5)c5ccccc5n4)cn2)C3)n1` [Example 19, N-(5-methyl-1H-pyrazol-3-yl)-2-(6-(6-((4-methylthiazol-2-yl)methyl)-3,6-diazabicyclo [3.1.1]heptan-3-yl)pyridin-3-yl)quinazolin-4-amine] displayed an IC50 of 40 nM. Also, the GI50 amounted to 1230 nM in the assay on Ba/F3 (naive) cells, 120 nM in assay [1], 28 nM in assay [2] and 29 nM in assay [3].
For `COc1cnc(CN2C3CC2CN(c2ccc(-c4nc(Nc5cc(C)[nH]n5)c5ccccc5n4)cn2)C3)cn1` [Example 17, 2-(6-(6-((5-methoxypyrazin-2-yl)methyl)-3,6-diazabicyclo [3.1.1]heptan-3-yl)pyridin-3-yl)-N-(5-methyl-1H-pyrazol-3-yl)quinazolin-4-amine], the midpoint of inhibition against RET (WT), the IC50, lay at 11 nM. For the same compound, the GI50 in the assay on Ba/F3 (naive) cells was 867 nM; in assay [1], 46 nM; in assay [2], 7 nM; in assay [3] it was 10 nM.
In the case of `Cc1cc(Nc2nc(-c3ccc(N4CC5CC(C4)N5Cc4ccc(C#N)nc4)nc3)nc3ccccc23)n[nH]1` [Example 9, 5-((3-(5-(4-((5-methyl-1H-py-razol-3-yl)amino)quinazolin-2-yl)pyridin-2-yl)-3,6-diazabicyclo [3.1.1]heptan-6-yl)methyl)pico-linonitrile], on RET (WT), the IC50 was 30 nM. Besides, the concentration for 50% growth inhibition (GI50) in the assay with Ba/F3 (naive) cells is 822 nM; in assay [1], 62 nM; in assay [2], 23 nM; in assay [3], 23 nM.
For the compound `COc1ccc(CN2C[C@@H]3C[C@H]2CN3c2ccc(-c3nc(Nc4cc(C)[nH]n4)c4ccccc4n3)cn2)cn1` [Example 31, 2-(6-((1S,4S)-5-((6-methoxy-pyridin-3-yl)methyl)-2,5-diazabicyclo [2.2.1]heptan-2-yl)pyridin-3-yl)-N-(5-methyl-1H-pyrazol-3-yl)quinazolin-4-amine], the IC50 on RET (WT) was 25 nM. The GI50 came to 1680 nM with Ba/F3 (naive) cells, 66 nM in assay [1], 12 nM in assay [2] and 18 nM in assay [3].
For the compound `Cc1cc(Nc2nc(-c3ccc(N4CC5CC(C4)N5Cc4ccc(C(F)(F)F)nc4)nc3)nc3ccccc23)n[nH]1` [Example 8, N-(5-methyl-1H-pyrazol-3-yl)-2-(6-(6-((6-(tri-fluoromethyl)py-ridin-3-yl)meth-yl)-3,6-diaza-bicyclo[3.1.1]heptan-3-yl)pyridin-3-yl)quinazolin-4-amine], it took 32 nM to reach half-maximal inhibition against RET (WT) (IC50). Also, the GI50 in the assay with Ba/F3 (naive) cells was 1980 nM; in assay [1], 51 nM; in assay [2] it was 23 nM; in assay [3] it was 12 nM.
On the same counts, the results for `COc1ccc(CN2CCCN(c3ccc(-c4nc(Nc5cc(C)[nH]n5)c5ccccc5n4)cn3)CC2)cn1` [Example 30, 2-(6-(4-((6-methoxypyridin-3-yl)methyl)-1,4-diazepan-1-yl)pyridin-3-yl)-N-(5-methyl-1H-pyrazol-3-yl)quinazolin-4-amine] are 34 nM, 1130 nM, 99 nM, 25 nM and 44 nM.

Broadly, the IC50 is the midpoint of a concentration-inhibition curve. Low values mean greater potency, high ones weaker potency. The GI50 is the concentration at which growth is held to half of that of the control.
